Results reported in EP4458916A1, “PHOTOCATALYTICALLY ACTIVE COATING COMPOSITION, METHOD FOR THE PRODUCTION THEREOF AND USE THEREOF” (priority 2023, dated 2024).
Like-named read-outs stand apart in the source and are kept apart here.

What was measured:
[1] = Immersion test: binding / wash-out of photocatalysts from SolGel coatings (1 h deionised water, UV-VIS signal loss); assay type: physicochemical; conditions: Rezeptur 5 coating on glass, dye 10 bis 40 mM; 1 h deionised water pH 6 ± 1, 22 ± 3 °C; relative UV-VIS signal loss at absorption maximum
Method: Für alle Untersuchungen wurden nach Beispiel 8 beschichtete Glasträger verwendet.
Um das Auswaschen der verschiedenen Farbstoffe in den Sol-Gel-Beschichtungen zu beurteilen wurde ein Immersionstest in vollentsalztem Wasser mit einem pH-Wert von (6 ± 1) und einer Wassertemperatur von (22 ± 3) °C für eine Stunde durchgeführt. Dazu wurden zunächst Schichten (Rezeptur 5, Beispiel 4, aufgefüllt mit 3,0 mL 2-Propanol; sh. Tabelle 3) mit erhöhter Farbstoffkonzentration (10 bis 40 mM; um die notwendige Auflösung bei der dünnen Schicht zu erreichen) auf Glas-Objektträgern erzeugt. Diese wurden nach dem Ablüften bei Raumtemperatur (30 min) eine Stunde bei 60°C nachgehärtet. Anschließend wurden die Schichten direkt im UV-VIS-Spektrometer vermessen. Die Ausgangswerte (Absorptionsmaximum des jeweiligen Farbstoffs) sollten dabei zwischen 0,05 A.U. und 1,50 A.U. liegen.
Nach einer Stunde in VE-Wasser wurden die Prüfkörper getrocknet und erneut gemessen. Aus den beiden Messungen wurde ein relativer Signalverlust in Prozent bei dem farbstoffspezifischen Absorptionsmaximum bestimmt.
Dieser Immersionstest diente dazu, das Auswaschverhalten verschiedener Farbstoffe aus Beschichtungssystemen zu beurteilen. Weiter soll er dabei helfen, verschiedene Farbstoffklassen oder verschiedene Farbstoffderivate einer Farbstoffklasse bezüglich dieser Charakteristik miteinander zu vergleichen. Die Ergebnisse sind in den folgenden Tabellen sortiert nach Stoffgruppen zusammengefasst: […]

S.aureus = assay type: cell-based; conditions: for Log10 Reduktion Probe / Log10 Reduktion Dunkelkontrolle: label = Katalysator of the coating, Rezeptur 2 nach Beispiel 2c on Melamin with S-25a 2 mM
Bakterien = assay: Room light tests (Raumlichtversuche): antimicrobial efficacy at 10 µW/cm^2 for 24 h; assay type: cell-based; conditions: Farbstoff 5 mM, coating Rezeptur 3, Beispiel 2a (2,5 eq aqueous boric acid, 50 mM)
Method: Um die antimikrobielle Wirksamkeit in einem realen Szenario abzuschätzen, wurden sogenannte Raumlichtversuche durchgeführt. Dazu wurden die mit Bakterien versetzten Probenträger mit einer, für Innenräume repräsentativen Lichtintensität von 10 µW/cm^2 für einen Zeitraum von 24 h bestrahlt.
Herstellung der Beschichtung erfolgte gemäß Beispiel 2a (2,5 eq wässrige Borsäure, 50 mM), mit Rezeptur 3. Die Ergebnisse sind in der Tabelle 63 zusammengefasst. Tabelle 63: Antimikrobielle Wirksamkeit bei Raumlichtbedingungen

I. monocytoqenes = assay: Bacteria test following modified ISO 22196, photodynamic effect of different photocatalysts in the SolGel coating on I. monocytoqenes; assay type: cell-based; conditions: Rezeptur 4 nach Beispiel 5 on Melamin, 4 h
Excerpt: (§1) Die Bestimmung der antimikrobiellen Aktivität erfolgte nach einer modifizierten Version der ISO 22196:2011-08 ("Messung von antibakterieller Aktivität auf Kunststoff- und anderen porenfreien Oberflächen", Ausgabedatum: 2011-08).
(§2) Bei der Testdurchführung wurde ein dünner Flüssigkeitsfilm, in dem die Bakterien enthalten sind (1,25 x 10^4 /cm2), direkt auf die Probekörper (2,5 cm x 2,5 cm) aufgebracht. Direkt nach Beimpfung wurden von der Nullprobe die Bakterien von den Probekörperoberflächen mittels Ultraschall und Vortexen abgelöst und die Keimzahl (KBE (engl. CFU), Kolonie-bildende Einheit) bestimmt (t0-Wert). Ein weiterer Satz Nullproben und antimikrobiell ausgestatteter Proben wurden mit Bakterien im Flüssigkeitsfilm bei Raumtemperatur inkubiert. Nach 4 h wurden überlebende Bakterien von den Probekörperoberflächen mittels Ultraschall und Vortexen abgelöst und die Keimzahl bestimmt (t4-Wert).
(§3) Im Unterschied zu der in der ISO 22196:2011-08 beschriebenen Methode wurde das Inokulum nicht mit einer Folie abgedeckt und die Inkubationszeit von 24 auf 4 Stunden reduziert. Weiterhin wurden die Platten der Proben 3 und 4 mit Licht mit einer Intensität von 300 µW/cm2 belichtet.
(§4) Der Bakterientest wurde in Anlehnung an ISO 22196 nach oben beschriebener Methode durchgeführt. Die Ergebnisse sind Tabelle 57a bis 57b dargestellt. Tabelle 57a: Photodynamische Wirkung verschiedener Katalysatoren in der SolGel Beschichtung gegen S.aureus

S. enterica = assay: Bacteria test following modified ISO 22196, photodynamic effect of different photocatalysts in the SolGel coating on S. enterica; assay type: cell-based; conditions: Rezeptur 4 nach Beispiel 5 on Melamin, 4 h
Excerpt: as §1, §2, §3, §4

## 2,7,12-Tris(pyridinio-p-tolyl)-17-(p-(methoxymethyl)phenyl) porphycen bromid [reference compound]
[1]
  Verlust durch Auswaschen: > 70%

## CC(O)C(=O)[O][Al]([O]C(=O)C(C)O)[O]C(=O)C(C)O (centres unmarked) [AL]
S.aureus; 4 h, 300 µW/cm2
  Log10 Reduktion Probe: 3,3±0,4
S.aureus; 4 h, dark
  Log10 Reduktion Dunkelkontrolle: 0,2±0,7

## O=P(N1CCCC1)(N1CCCC1)N1CCCC1 [PO]
S.aureus; 4 h, 300 µW/cm2
  Log10 Reduktion Probe: 3,6±0,3
S.aureus; 4 h, dark
  Log10 Reduktion Dunkelkontrolle: 0,0±0,1

## NCCCOC1=CC(=O)c2cccc3cccc1c23 [S-08]
[1]
  Verlust durch Auswaschen: 13%

## O=C1C(COc2ccc(O)cc2)=Cc2cccc3cccc1c23 [S-12]
[1]
  Verlust durch Auswaschen: 3%

## O=C1C(COc2ccc(CO)cc2)=Cc2cccc3cccc1c23 [S-13]
Bakterien; 24 h, dark control, read-out: Log10 Reduktion Dunkelkontrolle
  log reduction at 5000 µM: 0.9
Bakterien; illuminated 10 µW/cm^2 for 24 h, read-out: Log10 Reduktion 24 h
  log reduction at 5000 µM: 1.9

## O=C1C(C[n+]2ccccc2)=Cc2cccc3cccc1c23 [S-24a]
S.aureus; Rezeptur 2, Beispiel 2a, filled up with IPA 1:2/1:5/1:8, dye content varied (Tabelle 56)
  Photodynamische Wirkung gegen S.aureus (Log10 Reduktion), compared with the values of S-25a: im Rahmen des Fehlers die gleichen Werte
I. monocytoqenes; 300 µW/cm2
  I. monocytoqenes Log10 Reduktion Probe: 4,5±0,3
I. monocytoqenes; dark
  I. monocytoqenes Log10 Reduktion Dunkelkontrolle: 0,0±0,3
[1]
  Verlust durch Auswaschen: 9%
S. enterica; 300 µW/cm2
  S. enterica Log10 Reduktion Probe: 4,5±0,8
S. enterica; dark
  S. enterica Log10 Reduktion Dunkelkontrolle: 0,0±0,2

## CCCCCCCCCCOc1ccc(/C=C/C(=O)CC(=O)/C=C/c2ccc(OCCCCCCCCCC)cc2)cc1 [S-52a]
[1]
  Verlust durch Auswaschen: 13%

## COCCC1=Cc2nc1ccc1[nH]c(cc1CCOC)c1nc(c(O)cc3[nH]c2cc3CCOC)C(CCOC)=C1 [S-58a, 9-Hydroxy-2,7,12,17-tetra-(beta-methoxyethyl)porphycen]
S.aureus; Rezeptur 4 nach Beispiel 5 on Melamin, 4 h, 300 µW/cm2
  S. aureus Log10 Reduktion Probe: 1,4±0,1
S.aureus; Rezeptur 4 nach Beispiel 5 on Melamin, 4 h, dark
  S. aureus Log10 Reduktion Dunkelkontrolle: 0,0±0,1
[1]
  Verlust durch Auswaschen: 4%

## CC(=O)OCCC1=Cc2nc1ccc1[nH]c(cc1CCOC(C)=O)c1nc(c(O)cc3[nH]c2cc3CCOC(C)=O)C(CCOC(C)=O)=C1 [S-60a]
[1]
  Verlust durch Auswaschen: 8%

## CC(=O)OCCC1=Cc2nc1ccc1[nH]c(cc1CCOC(C)=O)c1nc3c(cc4[nH]c2cc4CCOC(C)=O)OCCC3=C1 [S-60b]
[1]
  Verlust durch Auswaschen: 2%

## COCCC1=Cc2nc1ccc1[nH]c(cc1CCOC)c1nc(c(OCCCO)cc3[nH]c2cc3CCOC)C(CCOC)=C1 [S-61a]
[1]
  Verlust durch Auswaschen: 6%

## COCCC1=Cc2nc1ccc1[nH]c(cc1CCOC)c1nc(c(OCCCN)cc3[nH]c2cc3CCOC)C(CCOC)=C1 [S-62]
[1]
  Verlust durch Auswaschen: 3%

## COCCC1=Cc2nc1ccc1[nH]c(cc1CCOC)c1nc(c(OCCCC(=O)O)cc3[nH]c2cc3CCOC)C(CCOC)=C1 [S-66a]
[1]
  Verlust durch Auswaschen: 3%

## COCCC1=Cc2nc1ccc1[nH]c(cc1CCOC)c1nc(c(OCCC[Si](OC)(OC)OC)cc3[nH]c2cc3CCOC)C(CCOC)=C1 [S-68]
[1]
  Verlust durch Auswaschen: 9%

## COCCC1=Cc2nc1c(O)cc1[nH]c(cc1CCOC)c1nc(c(NC(C)=O)cc3[nH]c2cc3CCOC)C(CCOC)=C1 [S-70]
[1]
  Verlust durch Auswaschen: 4%

## COCCC1=Cc2nc1ccc1[nH]c(cc1CCOC)c1nc(c(OC(=O)CCC(N)C(=O)O)cc3[nH]c2cc3CCOC)C(CCOC)=C1 (centres unmarked) [S-74]
[1]
  Verlust durch Auswaschen: 11%

## COCCC1=Cc2nc1ccc1[nH]c(cc1CCOC)c1nc(c(OCCCNC(=O)CCC(N)C(=O)O)cc3[nH]c2cc3CCOC)C(CCOC)=C1 (centres unmarked) [S-75]
[1]
  Verlust durch Auswaschen: 9%

## OCCC1=Cc2nc1ccc1[nH]c(cc1CCO)c1nc(c(O)cc3[nH]c2cc3CCO)C(CCO)=C1 [Verbindungen S-59a]
[1]
  Verlust durch Auswaschen: 8%
